Test results as given in patent publication US20120095022A1, “DERIVATIVES OF 10-AMINO-1,2,3,4-TETRAHYDROPYRIDO[2,1-A]ISOINDOL-6(10BH)-ONES, METHOD FOR PREPARATION THEREOF AND THERAPEUTIC USES THEREOF” (UNIVERSITE D'ORLEANS, priority 2009, published 2012).

Key:
[1] = molecular target: DYRK1A (Homo sapiens, UniProt Q13627); experiment: DYRK1A kinase inhibition (Woodtide substrate)
[2] = system: Caco (colon); experiment: Cytotoxicity on human cells, automated nuclei counting: Caco; assay type: cell-based; conditions: exposed 24 h to 48 h, 0.1 to 25 μM
Procedure, shortened: (§1)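 Read-out: automated imaging analysis. Cells in DMEM or RPMI + 10% FCS + pen-strep, 37° C, 5% CO2; 4.10^3 cells/well, 24 h settling before dosing at increasing concentrations. Vehicle controls: DMSO, max 1%.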

[3] = system: NCI (lung); experiment: Cytotoxicity on human cells, automated nuclei counting: NCI; assay type: cell-based; conditions: exposed 24 h to 48 h, 0.1 to 25 μM
Procedure, shortened: as §1

[4] = molecular target: GSK-3αβ; experiment: GSK-3 kinase inhibition (GS-1 substrate); conditions: read-out: IC50 μM Kinases GSK3, buffer A, 30° C., 15 μM ATP
[5] = system: PC3 (prostate); experiment: Cytotoxicity on human cells, automated nuclei counting: PC3; assay type: cell-based; conditions: PC-3, exposed 24 h to 48 h, 0.1 to 25 μM
Procedure, shortened: as §1

[6] = molecular target: CDK1/cyclin B; experiment: CDK1/cyclin B kinase inhibition (33P-ATP, histone H1); assay type: biochemical, sea star; conditions: buffer C, 30° C., 15 μM ATP, read-out: IC50 μM Kinases CDK1
Description: The protein kinase inhibition activities of the compounds of the invention are tested according to the following general procedure:
Buffer C: 60 mM β-glycerophosphate, 15 mM p-nitrophenyl-phosphate, 25 mM Mops (pH 7.2), 5 mM EGTA, 15 mM mgCl2, 1 mM DTT, 1 mM sodium vanadate and 1 mM phenylphosphate.
The controls were made with suitable dilutions of DMSO.
ATP (3.000 Ci/mmol.; 10 mCi/mL) in a final volume of 30 μL. After 30 mins of incubation at 30° C., 25 μL of supernatant aliquots were deposited on phosphocellulose Whatman P81 paper pieces of 2.5×3 cm, and after 20 seconds, the filters were washed five times (for at least 5 minutes each time) in a solution of 10 mL of phosphoric acid/1 litre of water. The wet filters were counted in the presence of 1 mL of scintillation fluid ACS (Amersham).

[7] = system: MDA-MB 231 (breast); experiment: Cytotoxicity on human cells, automated nuclei counting: MDA-MB 231; assay type: cell-based; conditions: MDA-MB 231 cells, exposed 24 h to 48 h, 0.1 to 25 μM
Procedure, shortened: as §1

[8] = system: HCT 116 (colon); experiment: Cytotoxicity on human cells, automated nuclei counting: HCT 116; assay type: cell-based; conditions: HCT 116 cells, exposed 24 h to 48 h, 0.1 to 25 μM
Procedure, shortened: as §1

[9] = system: fibroblast; experiment: Cytotoxicity on human cells, automated nuclei counting: fibroblast; assay type: cell-based; conditions: exposed 24 h to 48 h, 0.1 to 25 μM
Procedure, shortened: as §1

[10] = system: Huh7 (liver); experiment: Cytotoxicity on human cells, automated nuclei counting: Huh7; assay type: cell-based; conditions: Huh-7, exposed 24 h to 48 h, 0.1 to 25 μM
Procedure, shortened: as §1

[11] = molecular target: T1, CDK5/D25 (Homo sapiens, UniProt Q00535); experiment: CDK5 kinase inhibition (33P-ATP, histone H1); assay type: biochemical; conditions: buffer C, 30° C., 15 μM ATP, read-out: IC50 μM Kinases CDK5
T1 construct: made in house
Procedure, shortened: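 Kinase reactions ran in buffer C (25 mM Mops pH 7.2, 15 mM MgCl2, 1 mM DTT, phosphatase inhibitors) with [33P]-ATP for 30 min at 30° C. Phosphorylated substrate was captured on P81 phosphocellulose filters, washed in phosphoric acid and counted by scintillation.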

T1 sequence (Q00535 whole entry): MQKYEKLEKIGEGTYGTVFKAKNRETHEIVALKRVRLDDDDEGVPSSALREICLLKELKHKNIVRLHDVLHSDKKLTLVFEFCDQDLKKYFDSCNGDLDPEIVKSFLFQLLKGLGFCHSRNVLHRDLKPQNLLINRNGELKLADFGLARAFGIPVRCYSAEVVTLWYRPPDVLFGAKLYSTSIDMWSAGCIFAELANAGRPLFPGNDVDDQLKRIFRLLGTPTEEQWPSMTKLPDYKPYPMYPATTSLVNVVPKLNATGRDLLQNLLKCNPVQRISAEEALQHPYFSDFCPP
T1 sequence (Q15078 99-307 partner limits assumed): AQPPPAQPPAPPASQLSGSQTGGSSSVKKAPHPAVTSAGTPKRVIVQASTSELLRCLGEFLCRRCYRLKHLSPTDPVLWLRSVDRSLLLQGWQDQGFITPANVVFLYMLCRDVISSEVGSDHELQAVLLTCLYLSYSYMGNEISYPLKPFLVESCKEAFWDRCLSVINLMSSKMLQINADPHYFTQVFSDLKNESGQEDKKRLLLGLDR

| Compound | IC50 [1] [µM] | IC50 [2] [µM] | IC50 [3] [µM] | IC50 [4] [µM] | IC50 [5] [µM] | IC50 [6] [µM] | IC50 [7] [µM] | IC50 [8] [µM] | IC50 [9] [µM] | IC50 [10] [µM] | IC50 [11] [µM] | melting point [°C] |
| --- | --- | --- | --- | --- | --- | --- | --- | --- | --- | --- | --- | --- |
| O=C(Nc1ccccn1)Nc1cccc2c1C1CC3(CCN1C2=O)SCCS3 (centres unmarked) [Compound 16, 1-(6′-oxo-3′,4′,6′,10b′-tetrahydro-1′H-spiro[[1,3]dithiolane-2,2′-pyrido[2,1-a]isoindole]-10′-yl)-3-(pyridin-2-yl)urea] | > 10 | 15 | 25 | 0.033 | 6 | 0.22 | 20 | 10 | > 25 | 15 | 0.24 | 242 |
| O=C(Nc1cnccn1)Nc1cccc2c1C1CC3(CCN1C2=O)SCCS3 (centres unmarked) [Compound 17, 1-(6′-Oxo-3′,4′,6′,10b′-tetrahydro-1′H-spiro[[1,3]dithiolane-2,2′-pyrido[2,1-a]isoindole]-10′-yl)-3-(pyrazin-2-yl)urea] | > 10 | 0.5 | 0.4 | 0.044 | 0.6 | 0.13 | 0.15 | 0.1 | 0.8 | 0.1 | 0.15 | 236 |
| O=C(Nc1cc(-c2ccccc2)on1)Nc1cccc2c1C1CCCCN1C2=O (centres unmarked) [Compound 25, 1-(6-oxo-1,2,3,4,6,10b-hexahydropyrido[2,1-a]isoindol-10-yl)-3-(5-phenyl-isoxazol-3-yl)urea] | > 10 | 0.1 | 1.5 | 0.27 | 0.1 | > 10 | 0.2 | 0.03 | 0.1 | 0.25 | 1.5 | 248 |
| O=C1c2cccc(NC(=S)Nc3cc[nH]n3)c2C2CCCCN12 (centres unmarked) [Compound 64, 1-(6-Oxo-1,2,3,4,6,10b-hexahydropyrido[2,1-a]isoindol-10-yl)-3-(1H-pyrazol-3-yl)thiourea] | ≥ 100 | 20 | 25 | 16 | 6 |  | 25 | 20 | > 25 | 8 | 56 | 208 |
| O=C1c2cccc(NC(=S)Nc3ncccn3)c2C2CCCCN12 (centres unmarked) [Compound 65, 1-(6-Oxo-1,2,3,4,6,10b-hexahydropyrido[2,1-a]isoindol-10-yl)-3-(pyrimidin-2-yl)thiourea] | ≥ 100 | 20 | > 25 | > 10 | > 25 |  | 25 | > 25 | > 25 | > 25 | > 10 | 212 |
| O=C1c2cccc(NC(=S)Nc3cccc(Br)n3)c2C2CCCCN12 (centres unmarked) [Compound 67, 1-(6-Bromopyridin-2-yl)-3-(6-oxo-1,2,3,4,6,10b-hexahydropyrido[2,1-a]isoindol-10-yl)thiourea] | 92 | 3 | 12 | 4.5 | 8 |  | 4 | 2 | 10 | 10 | 8.1 | 195 |
| O=C1c2cccc(NC(=S)Nc3cnccn3)c2C2CC3(CCN12)SCCS3 (centres unmarked) [Compound 69, 1-(6′-Oxo-3′,4′,6′,10b′-tetrahydro-1′H-spiro[[1,3]dithiolane-2,2′-pyrido[2,1-a]isoindole]-10′-yl)-3-(pyrazin-2-yl)thiourea] | > 10 | 4 | > 25 | > 10 | > 25 |  | 10 | 15 | 25 | > 25 | > 10 | 128 |
